We go through 16 compounds from US4120947A, “Xanthine compounds and method of treating bronchospastic and allergic diseases” (priority 1976, dated 1978).

Read-outs that look alike come from different tables or passages of the source.

For data set [1], the system named is guinea pig tracheal chain preparation. Nature of the data set: SP: spasmolytic activity in vitro, guinea pig tracheal chain preparation. As to conditions: Cavia porcellus, read-out: SP in vitro C, molar concentration required to produce maximum relaxation. The source says: SP Spasmolytic activity evaluated in vitro using guinea pig tracheal chain preparation, and expressed as the molar (M) concentration required to produce maximum relaxation. The method used in that of Castillo and de Beer, J. Pharmac. Expt. Therap. 90, 104, 1947.

Data set [2] relates to histamine-induced bronchoconstriction in the guinea pig. Nature of the data set: BD: bronchodilator activity against histamine-induced bronchoconstriction in the guinea pig. The settings on record: for inhibition in vivo at 60 mg/kg / inhibition in vivo at 15 mg/kg / inhibition in vivo at 10 mg/kg / inhibition in vivo at 20 mg/kg / inhibition in vivo at 40 mg/kg / inhibition in vivo at 150 mg/kg / inhibition in vivo at 100 mg/kg / inhibition in vivo at 80 mg/kg: Cavia porcellus, po, read-out: BD (guinea pig), % protection; for onset and duration of action, in words / lethal / bronchodilator effectiveness, in words: guinea pig; for onset and duration of action, in words / bronchodilator effectiveness, in words: comparison with corresponding compound. The source says: BD Bronchodilator activity evaluated against histamine-induced bronchoconstriction in the guinea pig, and expressed as % protection at the stated time interval (in minutes and hours) post-drug against histamine agonist. Doses are expressed in milligrams per kilogram of body weight (mpk) per os (po) or intraperitoneally (ip).
A modification of the method of Siegmund. O.H., et al., J. Pharmacol. and Exp. Therap. 90:254-9, 1947, is used. Healthy guinea pigs weighing from 250 to 300 grams are placed four at a time and separated by wiring screening in an 11 liter plastic chamber, at the time of peak activity following drug administration. The challenge consists of histamine diphosphate (1% solution) aerosolized in a de Vilbiss -40 nebulizer at 200 mm Hg. Times for prostration are recorded.
Per cent protection is calculated as follows: [formula] wherein the times are measured in seconds.
In interpreting the BD data it should be noted that a dose giving less than 40-50% protection is not considered useful. Differences in percent protection of less than 10% are probably not significant.

In data set [3] the test system is antigen-induced bronchconstriction in rats sensitized with N. brasliensis. Nature of the data set: AA: antiallergy (anti-anaphylactic) activity against antigen-induced bronchoconstriction in sensitized rats.
Excerpt: The animals are subdivided into control and test groups. Test animals receive a drug either orally, intraperitoneally or intravenously and are challenged with intravenous antigen at fixed time intervals after dosing. Antigen-induced increases in tracheal pressure are monitored and reflect the extent of bronchoconstriction.
The nature of a further data set: in vivo. The settings on record: in vivo; rat, po. The method, then:
(§1) The LD50 was determined in three species, the mouse (male, 18-25 g), the albino rat (female, 150-200 g) and the albino guinea pig (male 180-280 g) by oral administration and in the albino rat by intraperitoneal administration. The animals are fasted overnight prior to testing. Six groups of ten animals are used; five groups are dosed with the test substance, the sixth group serves as a control and receives the drug vehicle at the highest test concentration. The compounds were administered in a 0.5% gum tragacanth solution in distilled water using a constant logarithmic increment in dose. Dose volume ranged from […].
(§2) The animals were housed five per cage (rat and guinea pig) or ten per cage (mouse) with free access to food and water. The number of dead animals was recorded daily for five consecutive days. The total mortality per group of ten for each dose level was recorded and LD50 with Confidence Limits calculated according to the method described by Weil, C.

A short description of a further data set: LD50 mouse. It counts as in vivo. As to conditions: in vivo, po. The method, then:
as §1, §2

The mark [4] stands for this setting: Rattus norvegicus, ip, 1 h, read-out: AA (rat), % protection.

Broadly, the LD50 is the dose at which mortality reaches 50%. The low end stands for greater toxicity, the high end for lower toxicity.

`COC(=O)n1c(C)nc2c1c(=O)n(C)c(=O)n2C` [Compound 4378, 1,3,8-trimethylxanthine-7-carboxylic acid, methyl ester]: the EC (maximum relaxation) in data set [1] turned out to be 100000 µM. Moreover, the inhibition in vivo at 60 mg/kg in data set [2] (1 h) turned out to be 96%; in data set [2] (4 h), 95%; in data set [2] (6 h), 89%. For the same compound, the “onset and duration of action, in words” value in data set [2] was “effective at lower doses and for longer duration”. Further, the inhibition in vivo at 75 mg/kg in data set [3] (setting [4]) turned out to be 54%.
In the case of `CC(C)Cn1c(=O)n(C)c(=O)c2[nH]cnc21` [Compound 4258, 1-methyl-3-(isobutyl)xanthine], the figures for the inhibition in vivo at 15 mg/kg in data set [2] (0.5 h) and in data set [2] (1 h) were 45% and 75%, respectively. In data set [2] (25 mpK po), the lethal was 2/4. Further, the “AA (rat), toxicity” value in data set [3] (2.0 mpK ip, 1h) is on record as “tox”. The inhibition in vivo at […] in data set [3] (setting [4]) worked out at 79%.
Consider `CCCCCn1c(=O)n(C)c(=O)c2c1nc(C)n2C(=O)OC` [Compound 4507, 1,8-dimethyl-3-n-pentylxanthine-7-carboxylic acid, methyl ester], for which, in data set [2] (1 h), the inhibition in vivo at 10 mg/kg is 26%, the inhibition in vivo at 20 mg/kg amounted to 52% and the inhibition in vivo at 40 mg/kg amounted to 100%. Moreover, the inhibition in vivo at 40 mg/kg in data set [2] (6 h) turned out to be 63%. For the same compound, the lethal in data set [2] (80 mpK po) is on record as 2/2.
Consider `CCOC(=O)n1c(C)nc2c1c(=O)n(C)c(=O)n2CC(C)CC` (racemic) [Compound 4477, DL-1,8-dimethyl-3-(2-methyl-1-butyl)xanthine-7-carboxylic acid, ethyl ester], for which the results for the inhibition in vivo at 10 mg/kg in data set [2] (0.5 h), in data set [2] (1 h) and in data set [2] (6 h) were 47%, 87% and 50%, respectively.
As for `Cc1nc2c([nH]1)c(=O)n(C)c(=O)n2C` [Compound 4296, 1,3,8-trimethylxanthine], the inhibition in vivo at 150 mg/kg in data set [2] (0.5 h) came out at 68%; in data set [2] (1 h), 80%; in data set [2] (2 h) it was 71%; in data set [2] (4 h), 79%; in data set [2] (6 h), 86%; in data set [2] (10 h) it was 85%. For the same compound, the inhibition in vivo at 100 mg/kg in data set [2] (1 h) worked out at 53%; in data set [2] (4 h) it was 45%; in data set [2] (6 h), 43%; in data set [2] (10 h), 23%. The inhibition in vivo at 75 mg/kg in data set [3] (setting [4]) was determined as 49%.
`COC(=O)n1c(C)nc2c1c(=O)n(C)c(=O)n2CCC(C)C` [Compound 4505, 1,8-dimethyl-3-isopentylxanthine-7-carboxylic acid, methyl ester]: the lethal in data set [2] (80 mpK po) is on record as 3/5.
`COC(=O)n1cnc2c1c(=O)n(C)c(=O)n2CC(C)C` [Compound 4274, 1-methyl-3-(isobutyl)xanthine-7-carboxylic acid, methyl ester]: the EC (maximum relaxation) in data set [1] is 500 µM. Also, the inhibition in vivo at 15 mg/kg came to 92% in data set [2] (0.5 h), 87% in data set [2] (1 h), 64% in data set [2] (2 h) and 18% in data set [2] (4 h). For the same compound, the lethal in data set [2] (40 mpK po) is reported as 1/6. Further, the “bronchodilator effectiveness, in words” value in data set [2] was “greater protection than 4258 at equal doses”. Further, the inhibition in vivo at 5 mg/kg in data set [3] (setting [4]) amounted to 74%.
As for `CCc1nc2c(c(=O)n(C)c(=O)n2CC(C)CC)n1C(=O)OC` (racemic) [Compound 4491, DL-1-methyl-3-(2-methyl-1-butyl)-8-ethyl-xanthine-7-carboxylic acid, methyl ester], in data set [2] (1 h), the inhibition in vivo at 10 mg/kg worked out at 25% and the inhibition in vivo at 40 mg/kg was found to be 52%.
As for `CCCOC(=O)n1c(C)nc2c1c(=O)n(C)c(=O)n2CC(C)CC` (racemic) [Compound 4488, DL-1,8-dimethyl-3-(2-methyl-1-butyl)xanthine-7-carboxylic acid, n-propyl ester], in data set [2] (1 h), the inhibition in vivo at 10 mg/kg was 24%, the inhibition in vivo at 20 mg/kg was determined as 78% and the inhibition in vivo at 40 mg/kg came out at 100%. In addition, in data set [2] (6 h), the inhibition in vivo at 10 mg/kg was 44%, the inhibition in vivo at 20 mg/kg worked out at 68% and the inhibition in vivo at 40 mg/kg came to 89%. For the same compound, the lethal in data set [2] (80 mpK po) is reported as 1/4.
Regarding `CCc1nc2c(c(=O)n(CC)c(=O)n2CC(C)CC)n1C(=O)OC` (racemic) [Compound 4498, DL-1,8-diethyl-3-(2-methyl-1-butyl)xanthine-7-carboxylic acid, methyl ester], in data set [2] (1 h), the inhibition in vivo at 40 mg/kg was 15% and the inhibition in vivo at 80 mg/kg was determined as 63%. For the same compound, in data set [2] (6 h), the inhibition in vivo at 40 mg/kg stood at 38% and the inhibition in vivo at 80 mg/kg was 79%.
`CCCC(C)Cn1c(=O)n(C)c(=O)c2c1nc(C)n2C(=O)OC` (racemic) [Compound 4515, DL-1,8-dimethyl-3-(2-methyl-1-pentyl)xanthine-7-carboxylic acid, methyl ester]: in data set [2] (1 h), the inhibition in vivo at 20 mg/kg amounted to 7% and the inhibition in vivo at 40 mg/kg came out at 100%.
Consider `CCC(C)Cn1c(=O)n(C)c(=O)c2[nH]c(C)nc21` (stereo not shown) [Compound 4383, 1,8-dimethyl-3-(2-methyl-1-butyl)xanthine], for which the figures for the LD50 in the data set “in vivo” and in the data set “LD50 mouse” were 887 mg/kg and 60.6 mg/kg, respectively. Also, the “BD (guinea pig), % protection” value in data set [2] (10 mpK po, 30') came to 35%; in data set [2] (20 mpK po, 4h) it was 100%; in data set [2] (20 mpK po, 6h) it was 97%. Moreover, in data set [2] (1 h), the inhibition in vivo at 10 mg/kg was 63%.
With `CCCC(C)Cn1c(=O)n(C)c(=O)c2c1ncn2C(=O)OC` (stereo not shown) [Compound 4377], in data set [2] (1 h), the inhibition in vivo at 20 mg/kg was 64% and the inhibition in vivo at 80 mg/kg amounted to 72%. For the same compound, the inhibition in vivo at 80 mg/kg in data set [2] (4 h) was 0%.
`CCC(C)Cn1c(=O)n(C)c(=O)c2c1ncn2C(=O)OC` (stereo not shown) [Compound 4380, 1-methyl-3-(2-methyl-1-butyl)xanthine-7-carboxylic acid, methyl ester]: the EC (maximum relaxation) in data set [1] is 1430 µM. Also, the “BD (guinea pig), % protection” value in data set [2] (20 mpK po, 1h) stood at 64%. In addition, the inhibition in vivo at 20 mg/kg in data set [2] (1 h) was 64%. Moreover, the inhibition in vivo at 40 mg/kg in data set [2] (1 h) turned out to be 99%; in data set [2] (4 h), 57%; in data set [2] (6 h), 12%. Besides, the inhibition in vivo at 5 mg/kg in data set [3] (Rattus norvegicus, po, 1 h, read-out: AA (rat), % protection) is 66%.
With `CCC(C)Cn1c(=O)n(CC)c(=O)c2c1nc(C)n2C(=O)OC` (racemic) [Compound 4494, DL-1-ethyl-3-(2-methyl-1-butyl)-8-methylxanthine-7-carboxylic acid, methyl ester], in data set [2] (1 h), the inhibition in vivo at 10 mg/kg was found to be 0% and the inhibition in vivo at 40 mg/kg came out at 9%. In addition, in data set [2] (6 h), the inhibition in vivo at 10 mg/kg is 49% and the inhibition in vivo at 40 mg/kg amounted to 80%. The lethal in data set [2] (80 mpK po) was 2/2.
In the case of `COC(=O)n1cnc2c1c(=O)n(C)c(=O)n2C` [Compound 4260, 1,3-dimethylxanthine-7-carboxylic ester, methyl ester], in data set [1], the EC (maximum relaxation) was found to be 50000 µM. Moreover, the inhibition in vivo at 80 mg/kg stood at 99% in data set [2] (0.5 h); 100% in data set [2] (1 h); 86% in data set [2] (2 h); 95% in data set [2] (4 h); 0% in data set [2] (6 h). The entries for the “bronchodilator effectiveness, in words” value in data set [2] and in data set [2] (listed as 1,3-dimethyl-7-carbomethoxyxanthine) were “clearly superior to theophylline at the same dose (80 mpK)” and “significantly more effective than theophylline itself”, respectively. The “onset and duration of action, in words” value in data set [2] was “more potent, with both faster onset and longer duration of action”. Besides, the inhibition in vivo at 75 mg/kg in data set [3] (setting [4]) stood at 82%.
